Read-outs that look alike come from different tables or passages of the source. * marks the point of attachment. (C12)2NCOCH2CH2CO = CCCCCCCCCCCCN(CCCCCCCCCCCC)C(=O)CCC(=O)*; OC7 = heptyl ester (C-terminal), CCCCCCCO*
Tested on: A. thaliana (Col-0) plant
Format: in vivo, Arabidopsis thaliana
Settings: for Decrease in primary root length: vs PNS
Text: The effect treating a plant with a composition comprising a synthetic amphiphile on root morphology or other physical characteristics or attributes can be quantitated. For example, a change in primary root length can be determined by measuring the difference, if any, in primary root length of a plant treated with the composition compared to the average of a control sample of plants of the same type grown under identical conditions in the absence of the composition. A change in lateral root density can be determined by comparing the lateral root density of a plant treated with the composition to the average lateral root density of a sample grown under identical conditions in the absence of the composition. Lateral root density can be determined by dividing the number of lateral roots by the length of the primary root. In certain embodiments for any quantitated characteristic or attribute, the average value of the control is the average of a statistically significant population of control plants. For example, in certain illustrative embodiments disclosed herein, three trials of about 20 plants each were used to determine the average of the control.
Illustrative of certain embodiments, approximately 60 plants were grown on PNS media (no additives) and root lengths and the number of lateral roots were recorded for each. The data points were averaged to obtain the following baseline values: primary root length=40.4±3.8 mm and number of lateral roots=6.1±0.8, respectively. The lateral root density was obtained by dividing the number of lateral roots by the length (in mm) of the primary root. The control value was (6.1/[…]=) 0.15.
Test compounds were added to the growth medium as 0.2% by volume DMSO. […]
To make 500 mL PN media, 485 mL doubly distilled (“dd”) H2O was first added to an autoclave beaker. The following salts and nutrients were added to a beaker and mixed well: 5 mL of 250 mM of KPO4 (pH 5.5), 2.5 mL of 1M KNO3, 1 mL of 1M MgSO4, 1 mL of 1M Ca(NO3)2, 0.5 mL of Ferric EDTA (1000× or 49 mM) and 0.5 mL of Micronutrients (1000×). In a 1 L autoclaved bottle, 0.6% (3 g) of bacteriological agar was added, followed by 500 mL solution prepared above. The media was autoclaved using the Liquid-30 program.
PNS plates were used for plating sterile Arabidopsis thaliana (Columbia-0) seeds. A sterile stock of PNS agar was maintained. Sterile sucrose was added to PN media to make PNS media. To make PNS media containing 0.5% sucrose, 5 mL of 50% sucrose (sterile filtered) was added to 500 mL of PN agar and mixed well.
The stored PNS media was liquefied using a water bath and allowed to cool to 55° C. The type of plates, compounds, and concentrations to be used were confirmed while the media cooled. The plates were labeled on the cover and the bottom with all the relevant information. 50 mL sterile centrifuge tubes were used to measure 29,940 μL (29.94 mL) PNS media. A fresh sterile 50 mL tube was used for each plate. The desired amount and concentration of compound was added to the PNS media, mixed by inverting the tube and poured in the plate. Total volume of media and compound in each plate was kept constant at 30 mL. A maximum of 60 μL (0.2% by volume) compound was added per plate. For example: 60 μL of 25 mM compound was added to 29.94 mL PNS media to get final concentration of 50 μM compound in PNS media. Plates were incubated at room temperature for 2 hours before plating seeds on them.
Hands and bench area were washed thoroughly before beginning. Sterilizing solution was prepared in a sterile 15 mL centrifuge tube, by mixing 5 mL of 30% bleach and 5 μL of 10% Triton X-100. A. thaliana Col-0 seeds were added to sterile 1.5 mL micro-centrifuge tube. 500 μL of sterilizing solution (30% bleach+0.01% Triton X-100) was added to the seeds, vortexed for 3 seconds and incubated at room temperature for 8 minutes. After 8 minutes, bleach was removed and 1 mL autoclaved MilliQ water was added. […]

[1] = Table 2, 20 μM in PNS, no unit in table (method: millimeters)
[2] = Table 2, 50 μM in PNS, no unit in table (method: millimeters)

| Compound | Lateral root density (Table 2, 20 μM) | Number lateral roots (Table 2, 20 μM) | Percent decrease 1° root (Table 2, 20 μM) | Primary root length [1] | Lateral root density (Table 2, 50 μM) | Number lateral roots (Table 2, 50 μM) | Percent decrease 1° root (Table 2, 50 μM) | Primary root length [2] | other results |
| --- | --- | --- | --- | --- | --- | --- | --- | --- | --- |
| CCCCCCCCCCN1CCOCCOCCN(CCCCCCCCCC)CCOCCOCC1 [C10 lariat ether, N,N′-Didecyl-4,13-diaza-18-crown-6] | 1.14 | 4 | 91.4% | 3.5 mm | 1.75 | 3.5 | 95.1% | 2 mm | Lateral root density with increasing concentration (0 μM to 50 μM, FIG. 7): Linear increase in lateral root density; Change in root morphology (lariat ether 20 μM): significant change in root morphology |
| CCCCCCCCCCCC(=O)N1CCOCCOCCN(C(=O)CCCCCCCCCCC)CCOCCOCC1 [C12 lariat ether amide] |  |  |  |  | 0.18 | 7 | 1.73% | 39.9 mm |  |
| CCCCCCCCCCCCN1CCOCCOCCN(CCCCCCCCCCCC)CCOCCOCC1 [C12 lariat ether] | 0.17 | 6 | 1.3% | 40.1 mm | 0.15 | 4.9 | 11.5% | 35.9 mm |  |
| CCCCCCCCCCCCC(=O)N1CCOCCOCCN(C(=O)CCCCCCCCCCCC)CCOCCOCC1 [C13 lariat ether amide] | 0.14 | 5.1 | 11.8% | 36.9 mm | 0.14 | 4.2 | 14.9% | 35.6 mm |  |
| c1ccc(CN2CCOCCOCCN(CCCCCCCCCCCCCCN3CCOCCOCCN(CCCCCCCCCCCCCCN4CCOCCOCCN(Cc5ccccc5)CCOCCOCC4)CCOCCOCC3)CCOCCOCC2)cc1 [C14 hydraphile (2)] |  |  |  |  |  |  |  |  | Number of lateral roots (hydraphile 20 μM): 6.2±0.3; Primary root length (hydraphile 20 μM in PNS media): 14 ± 2 mm; Primary root length (hydraphile 20 μM in PNS media, listed as compound 2): 14±2 mm; Decrease in primary root length (hydraphile 20 μM): 63%; Increase in lateral root density (hydraphile 20 μM, vs control): 4 fold; Lateral root density (hydraphile 20 μM, lateral roots divided by primary root length): 0.48±0.08; Primary root length (hydraphile 50 μM in PNS media): 0.7 ± 0.2 mm; Primary root length (hydraphile 50 μM in PNS media, listed as compound 2): 0.7±0.2 mm; Decrease in primary root length (hydraphile 50 μM): 98% |
| CCCCCCCCCCCCCC(=O)N1CCOCCOCCN(C(=O)CCCCCCCCCCCCC)CCOCCOCC1 [C14 lariat ether amide] |  |  |  |  | 0.21 | 8.6 | 0% | 41.9 mm |  |
| CCCCCCCCCCCCCCN1CCOCCOCCN(CCCCCCCCCCCCCC)CCOCCOCC1 [C14 lariat ether] | 0.17 | 6.9 | 0% | 41.5 mm | 0.21 | 4.9 | 48.4% | 20.9 mm |  |
| c1ccc(CN2CCOCCOCCN(CCCCCCCCCCCCCCCCN3CCOCCOCCN(CCCCCCCCCCCCCCCCN4CCOCCOCCN(Cc5ccccc5)CCOCCOCC4)CCOCCOCC3)CCOCCOCC2)cc1 [C16 hydraphile (3)] |  |  |  |  |  |  |  |  | Primary root length (hydraphile 10 μM in PNS media): 23 ± 0.4 mm; Primary root length (hydraphile 10 μM in PNS media, listed as compound 3): 23±0.4 mm; Decrease in primary root length (hydraphile 10 μM): 39%; Primary root length (hydraphile 20 μM in PNS media): 15 ± 0.5 mm; Primary root length (hydraphile 20 μM in PNS media, listed as compound 3): 15±0.5 mm; Decrease in primary root length (hydraphile 20 μM): 61%; Effect on growth / root development (hydraphile 50 μM in PNS media): inhibit the primary root development; Primary root length (hydraphile 50 μM in PNS media): 4 ± 0.2 mm; Primary root length (hydraphile 50 μM in PNS media, listed as compound 3): 4±0.2 mm; Decrease in primary root length (hydraphile 50 μM): 90% |
| (C12)2NCOCH2CH2CO-AAAPGGG-OC7 ({(C12)2NCOCH2CH2CO}-AAAPGGG-OC7; SMILES CCCCCCCCCCCCN(CCCCCCCCCCCC)C(=O)CCC(=O)N[C@@H](C)C(=O)N[C@@H](C)C(=O)N[C@@H](C)C(=O)N1CCC[C@H]1C(=O)NCC(=O)NCC(=O)NCC(=O)OCCCCCCC) [Compound 10] |  |  |  |  |  |  |  |  | Lateral root density (SAT 50 μM in PNS): 0.12; Number of lateral roots (SAT 50 μM in PNS): 3.4; Primary root length (SAT 50 μM in PNS): 28.4 mm |

Source: patent US10548319B2, “Compositions and methods for synthetic amphiphile-induced changes in plant root morphology” (The Curators of the University of Missouri, priority 2014, dated 2020)
